Measured values published in PMC12071365, “Discovery of Boronic Acids-Based β-Lactamase Inhibitors Through In Situ Click Chemistry” (International Journal of Molecular Sciences, 2025).
Where two headings read alike, the source gives them in different places.

Experiments:
AmpC [1] = molecular target: T1, AmpC (Escherichia coli, UniProt P00811); assay: Competitive inhibition assay with nitrocefin, Ki; type: biochemical; set-up: made in house
Description: (§1) The β-lactamases used in the present study were from a Clinical Biochemistry Laboratory collection (Department of Biotechnological and Applied Clinical Sciences, University of L’Aquila, L’Aquila, Italy). […] The concentration of each enzyme was determined by a Bradford assay.
(§2) The plot v0/vi versus [I] yielded a straight line of slope KM/(KM + S) × Ki.
Figure 9 Compounds synthesised and their biological evaluation. AC = Amplification coefficient. […] Light blue indicates the compounds from the AmpC screening.

KPC-2 [2] = molecular target: T2, KPC-2 (Klebsiella pneumoniae, UniProt Q9F663); assay: Competitive inhibition assay with nitrocefin, Ki; type: biochemical; conditions: for improvement compared with the warhead activity: Ki vs KPC-2 relative to warhead 3 (Ki = 2.3 µM)
T2 construct: made in house
Description: as §1, §2
AC = Amplification coefficient. In the AC column, between brackets reports the regioisomeric ratio observed (1,4- vs. 1,5-) and bold reports the synthesised regioisomer. Light blue indicates the compounds obtained from the KPC-2 screening.

KPC-2 [3] = molecular target: T2, KPC-2; conditions: KPC-2 20 mol%; warhead 3 + alkyne cluster; 37 °C, 24 h
Description: Starting from the azido-functionalised boronic acid 3, optimised conditions (see SI Table S2) were applied in combination with the 90-component alkyne library. The reactions were conducted in 0.2 mL microtubes in a 95:5 sodium phosphate 50 mM pH 7.0:DMSO mixture (final volume 100 µL), stirring at 300 rpm at 37 °C for 24 h (Scheme 1).
The experiments were conducted in triplicate, using a reaction mixture containing one equivalent of warhead 3, five equivalents of each alkyne cluster (9 alkynes), and 20 mol% KPC-2 as the catalyst. Product formation was monitored directly from the crude mixture using a hybrid quadrupole orbitrap LC–MS system in the ESI+ or ESI- mode after 24 h. Peak areas of the desired products were compared across three conditions: with KPC-2, without any enzyme, and with bovine serum albumin (BSA). […] The resulting ratio, named as the amplification coefficient (AC), was calculated from the peak area of the product obtained in the presence of KPC-2 vs. the one acquired with the controls.
(§3) Binary and multicomponent KTGS. […] The microtube was shaken at 300 rpm at 37 °C for 24 h. Reactions were transferred into a LC–MS vial and directly injected (10 µL) for liquid chromatography–mass spectrometry (LC–MS). Reactions were analysed with an Ultimate 3000 UHPLC coupled to a Q-exactive hybrid quadrupole-orbitrap mass spectrometer via an HESI-II heated electrospray ionisation source. The chromatographic separation was performed injecting a 10 µL sample volume on a Hypersil Gold C18 100 × 2.1 mm, 1.9 µm column (Thermo Fisher Scientific), kept at 30 °C eluting with 0.3 mL/min flow of ultrapure water (A) and methanol (B), both with 0.1% formic acid as mobile phase. […] A data-dependent mass spectrometric data acquisition strategy was used for full MS/DD-MS2. […] An inclusion list was eventually used to target the MS2 spectra acquisition of preferred ion species. Detection was based on calculated [M+H]^+ and [M−H]^− molecular ions with a 5 ppm accuracy tolerance for their respective ion chromatogram extraction. Peak retention time and area of detected target compounds was used for their detection and semi-quantitative evaluation in between reaction batches.
(§4) For controls (buffer and BSA), AmpC/KPC-2 is replaced with no enzyme (buffer volume 95 µL) and BSA (stock 100 µM, final concentration 5 µM, buffer volume 90 µL). Hits were identified in each cluster by mass and retention time and compared with both controls (buffer and BSA) and synthetically prepared triazoles obtained in mixtures.

AmpC [4] = molecular target: T1, AmpC; set-up: made in house; conditions: AmpC 20 mol%; warhead 3 + alkyne cluster; 37 °C, 24 h
Description: Following the same conditions used for the multicomponent screening with KPC-2, the in situ click chemistry experiment was performed using AmpC as template.
as §3, §4

ADC-7 = molecular target: ADC-7; set-up: method as in PMID 26102369, PMID 34970229, PMID 37358467, PMID 26729491; conditions: ref [17],[19],[35],[36]; cited from earlier work
NDM-1 = NDM-1 (Klebsiella pneumoniae, UniProt C7C422); assay: % inhibition at fixed concentration; type: biochemical; set-up: made in house
Description: (§5) Selection of an appropriate warhead-bearing reagent is crucial for achieving a successful in situ click chemistry. Thus, we assessed the inhibitory activity of the selected warheads against a pool of different β-lactamases to verify their binding specificity for the target. The affinity (inhibitory ability) of 2-4 against 12 representative β-lactamases from class A, B, C, and D was assessed as the percentage of inhibition at a fixed concentration of 200 µM (Table 1).
as §1, §2
(§6) For the β-lactamases test at a fixed concentration previously reported in Table 1, the following conditions were applied (Table 3): […]

SHV-12 = SHV-12 (Klebsiella pneumoniae, UniProt P0AD64, E235K/G234S/L31Q); assay: % inhibition at fixed concentration; type: biochemical; conditions: SHV-12, class A; inhibitor 200 µM; substrate NCF
VIM-1 = molecular target: T3, VIM-1 (Pseudomonas aeruginosa, UniProt A0A0F7KYQ8); assay: % inhibition at fixed concentration; type: biochemical
T3 construct: made in house
Description: as §5, §1, §2, §6

KPC-53 = KPC-53 (Klebsiella pneumoniae, UniProt Q9F663, DUP166-167/H272Y); assay: % inhibition at fixed concentration; type: biochemical
Description: as §5, §1, §2, §6

OXA-24 = OXA-24 (Acinetobacter baumannii, UniProt Q8RLA6); assay: % inhibition at fixed concentration; type: biochemical
Description: as §5, §1, §2, §6

ADC-25 = ADC-25 (Acinetobacter baumannii, UniProt A8QIF8); assay: % inhibition at fixed concentration; type: biochemical
Description: as §5, §1, §2, §6

OXA-48 = OXA-48 (Klebsiella pneumoniae, UniProt Q6XEC0); assay: % inhibition at fixed concentration; type: biochemical; conditions: OXA-48, class D; inhibitor 200 µM; substrate IMI
Description: as §5, §1, §2, §6

CMY-2 = CMY-2 (Klebsiella pneumoniae, UniProt Q48434); assay: % inhibition at fixed concentration; type: biochemical
Description: as §5, §1, §2, §6

KPC-2 [5] = molecular target: T2, KPC-2; assay: % inhibition at fixed concentration; type: biochemical
Description: as §5, §1, §2, §6

IMP-1 = molecular target: T4, IMP-1 (Serratia marcescens, UniProt P52699); assay: % inhibition at fixed concentration; type: biochemical
T4 construct: made in house
Description: as §5, §1, §2, §6

CTX-M-15 = molecular target: T5, CTX-M-15 (Escherichia coli, UniProt Q9EXV5); assay: % inhibition at fixed concentration; type: biochemical
T5 construct: made in house
Description: as §5, §1, §2, §6

AmpC [6] = molecular target: T1, AmpC; assay: % inhibition at fixed concentration; type: biochemical; set-up: made in house
Description: Selection of an appropriate warhead-bearing reagent is crucial for achieving a successful in situ click chemistry. Thus, we assessed the inhibitory activity of the selected warheads against a pool of different β-lactamases to verify their binding specificity for the target. […]
as §1, §2, §6

KPC-2 [7] = molecular target: T2, KPC-2; set-up: method as in PMID 35792385; conditions: ref [58]; cited from earlier work
[8] = test system: O=C(Cc1cccs1)N[C@@H]1C(=O)N2C(C(=O)O)=C(/C=C/c3ccc([N+](=O)[O-])cc3[N+](=O)[O-])CS[C@H]12; assay: purified protein, by the assay type
[9] = test system: C[C@@H](O)[C@H]1C(=O)N2C(C(=O)O)=C(S[C@@H]3CN[C@H](C(=O)N(C)C)C3)[C@H](C)[C@H]12; assay: purified protein, by the assay type

T1 sequence (P00811 20-377): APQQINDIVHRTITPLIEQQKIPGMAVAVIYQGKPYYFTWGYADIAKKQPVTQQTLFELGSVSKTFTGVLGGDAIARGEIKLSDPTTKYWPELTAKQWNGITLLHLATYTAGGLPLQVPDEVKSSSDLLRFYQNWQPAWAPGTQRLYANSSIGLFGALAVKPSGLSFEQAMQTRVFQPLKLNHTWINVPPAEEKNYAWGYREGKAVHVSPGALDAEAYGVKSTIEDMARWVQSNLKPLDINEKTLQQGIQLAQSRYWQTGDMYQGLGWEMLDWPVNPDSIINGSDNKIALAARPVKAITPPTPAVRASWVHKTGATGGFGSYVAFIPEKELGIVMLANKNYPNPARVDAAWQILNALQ
T5 sequence (Q9EXV5 entry or part of it): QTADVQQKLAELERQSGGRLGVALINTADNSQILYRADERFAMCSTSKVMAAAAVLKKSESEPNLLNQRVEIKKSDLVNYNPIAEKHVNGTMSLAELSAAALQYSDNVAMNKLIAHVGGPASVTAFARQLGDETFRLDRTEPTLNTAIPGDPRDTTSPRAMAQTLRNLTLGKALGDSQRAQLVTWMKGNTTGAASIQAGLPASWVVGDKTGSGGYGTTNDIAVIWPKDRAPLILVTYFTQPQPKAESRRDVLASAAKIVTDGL

COC(=O)c1cccc(CS(=O)(=O)NCc2cnnn2Cc2cccc(B(O)O)c2)c1 [7a]
Ki (AmpC [1]; AmpC, values in nM): 170 nM | Ki (KPC-2 [2]): 4600 nM

C#CCOc1cccc(C(N)=O)c1 [Al-32]
AC (amplification coefficient) (KPC-2 [3]): exceeding three

C#CCS(=O)(=O)c1ccccc1 [Al-39]
AC (amplification coefficient) (KPC-2 [3]): exceeding three

C#CCNS(=O)(=O)Cc1cccc(C(=O)OC)c1 [Al-57]
AC (amplification coefficient) (KPC-2 [3]): exceeding three

C#CCNC(=O)c1ccc(C(=O)OC)cc1 [Al-88]
AC (amplification coefficient) (AmpC [4]): 3-4

Nc1nnc(SCC(=O)N[C@@H](Cn2cc(C(=O)O)nn2)B(O)O)s1 [MB076]
Ki (ADC-7): 210 nM

[N-]=[N+]=NCc1ccccc1B(O)O [compound 2]
inhibition at 200 µM (NDM-1): 23% | % of inhibition (SHV-12): 14% | inhibition at 200 µM (VIM-1): 23% | inhibition at 200 µM (KPC-53): 54% | inhibition at 200 µM (OXA-24): 20% | inhibition at 200 µM (ADC-25): 27% | inhibition at 200 µM (OXA-48): < 1% | inhibition at 200 µM (CMY-2): 19% | inhibition at 100 µM (KPC-2 [5]): 35% | inhibition at 200 µM (IMP-1): 12% | inhibition at 200 µM (CTX-M-15): 0% | inhibition at 100 µM (AmpC [6]): 57%

[N-]=[N+]=NCc1cccc(B(O)O)c1 [compound 3, (3-(azidomethyl)phenyl)boronic acid]
inhibition at 200 µM (NDM-1): 20% | activity vs. KPC-2 (KPC-2 [7]): sub-µM | Ki (AmpC [1]; AmpC, values in nM): 700 nM | % of inhibition (SHV-12): 38% | inhibition at 200 µM (VIM-1): 24% | inhibition at 200 µM (KPC-53): 65% | inhibition at 200 µM (OXA-24): 24% | inhibition at 200 µM (ADC-25): 67% | inhibition at 200 µM (OXA-48): 2% | inhibition at 200 µM (CMY-2): 79% | inhibition at 100 µM (KPC-2 [5]): 76% | inhibition at 200 µM (IMP-1): 11% | inhibition at 200 µM (CTX-M-15): 42% | Ki (KPC-2 [2]): 2300 nM | inhibition at 100 µM (AmpC [6]): 100% | % of inhibition (AmpC [6]; AmpC, class C, inhibitor 100 µM, substrate NCF): completely inhibits

[N-]=[N+]=NCc1ccc(B(O)O)cc1 [compound 4, (4-(azidomethyl)phenyl)boronic acid]
inhibition at 200 µM (NDM-1): 24% | activity vs. KPC-2 (KPC-2 [7]): sub-µM | % of inhibition (SHV-12): 48% | inhibition at 200 µM (VIM-1): 33% | inhibition at 200 µM (KPC-53): 55% | inhibition at 200 µM (OXA-24): 26% | inhibition at 200 µM (ADC-25): 46% | inhibition at 200 µM (OXA-48): < 1% | inhibition at 200 µM (CMY-2): 67% | inhibition at 100 µM (KPC-2 [5]): 72% | inhibition at 200 µM (IMP-1): 22% | inhibition at 200 µM (CTX-M-15): 22% | inhibition at 100 µM (AmpC [6]): 81%

NC(=O)c1cccc(OCc2cn(Cc3cccc(B(O)O)c3)nn2)c1 [compound 5]
AC (amplification coefficient) (KPC-2 [3]): 3-4 | Ki (KPC-2 [2]; KPC-2, values in nM): 730 nM | improvement compared with the warhead activity (KPC-2 [2]): 3 fold

O=S(=O)(Cc1cn(Cc2cccc(B(O)O)c2)nn1)c1ccccc1 [compound 6]
AC (amplification coefficient) (KPC-2 [3]): 3-4 | Ki (KPC-2 [2]): 800 nM | improvement compared with the warhead activity (KPC-2 [2]): 3 fold

COC(=O)c1cccc(CS(=O)(=O)NCc2cn(Cc3cccc(B(O)O)c3)nn2)c1 [compound 7]
Ki (AmpC [1]; AmpC, values in nM): 300 nM | AC (amplification coefficient) (AmpC [4]): 4-5 | AC (amplification coefficient) (KPC-2 [3]): 5-6 | Ki (KPC-2 [2]): 1700 nM

CCCCC(=O)NCc1cn(Cc2cccc(B(O)O)c2)nn1 [compound 8]
Ki (AmpC [1]): 1500 nM | Ki (KPC-2 [2]): 7600 ± 400 nM

CC(C)CC(O)c1cn(Cc2cccc(B(O)O)c2)nn1 (centres unmarked) [compound 9]
Ki (AmpC [1]): 11000 nM | Ki (KPC-2 [2]): 5600 ± 300 nM

O=S(=O)(NCc1cn(Cc2cccc(B(O)O)c2)nn1)C1CCCCC1 [compound 10]
Ki (AmpC [1]; AmpC, values in nM): 600 nM | Ki (KPC-2 [2]): 670 ± 100 nM

CN(C)c1ccc(-c2cn(Cc3cccc(B(O)O)c3)nn2)cc1 [compound 11]
Ki (AmpC [1]; AmpC, values in nM): 280 nM | Ki (KPC-2 [2]): 460 nM

COC(=O)c1ccc(C(=O)NCc2cn(Cc3cccc(B(O)O)c3)nn2)cc1 [compound 12]
Ki (AmpC [1]; AmpC, values in nM): 400 nM | AC (amplification coefficient) (AmpC [4]): 3-4

O=C(CCC1CCCCC1)NCc1cn(Cc2cccc(B(O)O)c2)nn1 [compound 13]
Ki (AmpC [1]; AmpC, values in nM): 800 nM

CMY-2 (Klebsiella pneumoniae)
Km ([8]; other: CMY-2, NaPi 50 mM pH 7.0): 8 ± 1 µM µM

CTX-M-15 (Escherichia coli)
Km ([8]; other: CTX-M-15, NaPi 50 mM pH 7.0): 35 ± 1 µM µM

IMP-1 (Serratia marcescens)
Km ([9]; other: IMP-1, HEPES 20 mM pH 7.0 + 20 µM Zn): 30 ± 1 µM µM

OXA-24 (Acinetobacter baumannii)
Km ([8]; other: OXA-24, NaPi 50 mM pH 7.0): 29 ± 1 µM µM

VIM-1 (Pseudomonas aeruginosa PAO1)
Km ([9]; other: VIM-1, HEPES 20 mM pH 7.0 + 20 µM Zn): 130 ± 4 µM µM
